Results published in patent US7519519B1, “Signature projection score” (Entelos, Inc., priority 2002, dated 2009).
Where two headings read alike, the source gives them in different places. Marks after values point to notes of the source that are not given here.

Columns and labels:
leukocytes = system: leukocytes
Experimental: (§1) Control animals were dosed with vehicle only.
The Leukocyte Depletion Signature was derived by analysis of a subset of data from about 2000 in vivo rat drug treatments (using about 300 individual drugs) representing multiple tissues; the method for creation of this dataset is described in the general methods section.

[1] = system: Leukocyte Depletion Signature; experiment: Signature Projection Score against the Leukocyte Depletion Signature, spleen gene expression data; type: in vivo, rat; conditions: maximum over treatments, normalized so highest training treatment = 100, * = p < 0.01, ** = p < 0.001
Experimental: as §1

[2] = system: Leukocyte Depletion Signature; experiment: Signature Projection Score against the Leukocyte Depletion Signature, bone marrow gene expression data; conditions: maximum over treatments, normalized so highest training treatment = 100, * = p < 0.01, ** = p < 0.001
Description: Using only the genes in the signature, the amount and direction of gene expression changes in an experimental sample are compared (in terms of log ratio of expression signals) against a reference gene expression change (computed as the average over a characterizing set of treatments in our database). The sum over genes of the product of these two differences is computed, and normalized such that the highest score of any of the characterizing treatments when calculated in this way is 100.
After determination of the MTD and FED for a compound, each compound was dissolved in a vehicle for administration on day 1 of the study (additional daily doses were stored as frozen aliquots from this initial formulation). Each compound was administered to three individual male Sprague-Dawley rats for each of the two doses (MTD and FED) for one of four different times (0.25 day, 1 day, 3 days, and 5 days), yielding a total of up to 24 animals per compound study. Vehicle choice was based on solubility of the compound, effect of food on adsorption, and the vehicles used in the literature reports examined during the FED selection investigations, described above. Generally, the route and vehicle in which the FED was defined are used. When there was a choice of routes and vehicles, oral routes were chosen over injection routes. Many compounds, especially oncolytics, are only administrable intravenously. In such cases, the compound was administered as an intravenous formulation into the tail vein. Orally administered compounds were given dissolved in either water, 1% carboxymethycellulose (CMC) or corn oil. Intravenously and intraperitoneally administered compounds were given in 0.9% saline. Subcutaneously administered compounds were given in corn oil. Animal body weights were determined at 1 day and, where appropriate, at 4 days, before necropsy, and clinical observations were made on a daily basis. Control animals were dosed with vehicle only. Three male animals were used for each dose and time combination used for the compound treatment.
Tissue harvest and handling: After the allocated treatment time, the tissues from the animals were harvested. […] All the tissues collected were divided to provide samples for histopathological analyses, and the remainder of each tissue was then snap-frozen. […] Preparation of enriched mRNA: Punch biopsies were taken from the frozen tissues and were completely homogenized before being processed using the MagNA Pure robot. (Roche Diagnostics Corp., Indianapolis, Ind.) in combination with the MagNA Pure LC RNA Isolation kit II (Roche Diagnostics Corp). The amount of lysis buffer was adjusted to allow 1 ml per 50 mg for liver tissue, or 1 ml per 80 mg for all other tissues.

[3] = time point 5 days, average of 3 animals, * = p < 0.01

## NC(=O)NO [HYDROXYUREA]
leukocytes; rat, in vivo
  Max Fold Serum Leukocyte Depletion: 2.92 fold
[1]
  Max Spleen Score (Signature Projection Score): 15
[2]
  Max Bone Marrow Score (Signature Projection Score): 13

## COc1cc([C@@H]2c3cc4c(cc3[C@@H](O[C@@H]3O[C@@H]5CO[C@@H](C)O[C@H]5[C@H](O)[C@H]3O)[C@H]3COC(=O)[C@H]23)OCO4)cc(OC)c1O [ETOPOSIDE]
leukocytes; rat, in vivo
  Max Fold Serum Leukocyte Depletion: 2.04 fold
[1]
  Max Spleen Score (Signature Projection Score): 47*
[2]
  Max Bone Marrow Score (Signature Projection Score): 43*

## Cc1oncc1C(=O)Nc1ccc(C(F)(F)F)cc1 [LEFLUNOMIDE]
leukocytes; rat, in vivo
  Max Fold Serum Leukocyte Depletion: 2.89 fold
[1]
  Max Spleen Score (Signature Projection Score): 34*
[2]
  Max Bone Marrow Score (Signature Projection Score): 7

## CO[C@@]12[C@H](COC(N)=O)C3=C(C(=O)C(C)=C(N)C3=O)N1C[C@@H]1N[C@@H]12 [MITOMYCIN C]
leukocytes; maximum over treatments
  Max Fold Serum Leukocyte Depletion: 3.53 fold
leukocytes; [3]
  Fold Decrease in leukocytes: 3.53* fold
[1]
  Max Spleen Score (Signature Projection Score): 57*
[2]
  Max Bone Marrow Score (Signature Projection Score): 7

## CN(Cc1cnc2nc(N)nc(N)c2n1)c1ccc(C(=O)N[C@@H](CCC(=O)O)C(=O)O)cc1 [METHOTREXATE]
leukocytes; rat, in vivo
  Fold Decrease in leukocytes: 4.35* fold
  Max Fold Serum Leukocyte Depletion: 4.35 fold
[1]
  Max Spleen Score (Signature Projection Score): 75**
[2]
  Max Bone Marrow Score (Signature Projection Score): 6

## Oc1c(Cl)cc(Cl)cc1Sc1cc(Cl)cc(Cl)c1O [BITHIONOL]
leukocytes; rat, in vivo
  Max Fold Serum Leukocyte Depletion: 0 fold
[1]
  Max Spleen Score (Signature Projection Score): 2
[2]
  Max Bone Marrow Score (Signature Projection Score): 4

## O=NN(CCCl)C(=O)NC1CCCCC1 [LOMUSTINE]
leukocytes; maximum over treatments
  Max Fold Serum Leukocyte Depletion: 0 fold
[1]
  Max Spleen Score (Signature Projection Score): 23*
[2]
  Max Bone Marrow Score (Signature Projection Score): 3

## O=C(O)CCCc1ccc(N(CCCl)CCCl)cc1 [CHLORAMBUCIL]
leukocytes; maximum over treatments
  Max Fold Serum Leukocyte Depletion: 7.08 fold
leukocytes; [3]
  Fold Decrease in leukocytes: 7.08* fold
[1]
  Max Spleen Score (Signature Projection Score): 65*
[2]
  Max Bone Marrow Score (Signature Projection Score): 9

## CN(C)C=O [N,N-DIMETHYLFORMAMIDE]
[1]
  Max Spleen Score (Signature Projection Score): 3
[2]
  Max Bone Marrow Score (Signature Projection Score): 0

## N.N.O=C([O-])C1(C(=O)[O-])CCC1.[Pt+2] [CARBOPLATIN]
leukocytes; maximum over treatments
  Max Fold Serum Leukocyte Depletion: 0 fold
[1]
  Max Spleen Score (Signature Projection Score): 8
[2]
  Max Bone Marrow Score (Signature Projection Score): 2

## ClC(Cl)(Cl)Cl [CARBON TETRACHLORIDE]
leukocytes; maximum over treatments
  Max Fold Serum Leukocyte Depletion: 0 fold
[2]
  Max Bone Marrow Score (Signature Projection Score): 2

## O=P1(NCCCl)OCCCN1CCCl (stereo not drawn) [IFOSFAMIDE]
[1]
  Max Spleen Score (Signature Projection Score): 11
[2]
  Max Bone Marrow Score (Signature Projection Score): 79**

## CN(C)c1nc(N(C)C)nc(N(C)C)n1 [ALTRETAMINE]
leukocytes; rat, in vivo
  Max Fold Serum Leukocyte Depletion: 0 fold
[1]
  Max Spleen Score (Signature Projection Score): 5
[2]
  Max Bone Marrow Score (Signature Projection Score): 3

## COc1c(C)c2c(c(O)c1C/C=C(\C)CCC(=O)OCCN1CCOCC1)C(=O)OC2 [MYCOPHENOLATE MOFETIL]
[2]
  Max Bone Marrow Score (Signature Projection Score): 9

## CC[C@]1(O)C[C@H]2CN(CCc3c([nH]c4ccccc34)[C@@](C(=O)OC)(c3cc4c(cc3OC)N(C=O)[C@H]3[C@@](O)(C(=O)OC)[C@H](OC(C)=O)[C@]5(CC)C=CCN6CC[C@]43[C@@H]65)C2)C1 [VINCRISTINE]
[2]
  Max Bone Marrow Score (Signature Projection Score): 5

## N.N.[Cl][Pt][Cl] [CISPLATIN]
leukocytes; maximum over treatments
  Max Fold Serum Leukocyte Depletion: 2.01 fold
[1]
  Max Spleen Score (Signature Projection Score): 25*
[2]
  Max Bone Marrow Score (Signature Projection Score): 7

## S=C=Nc1cccc2ccccc12 [1-NAPHTHYL ISOTHIOCYANATE]
leukocytes; maximum over treatments
  Max Fold Serum Leukocyte Depletion: 0 fold
[2]
  Max Bone Marrow Score (Signature Projection Score): 0

## COc1cccc2c1C(=O)c1c(O)c3c(c(O)c1C2=O)C[C@@](O)(C(=O)CO)C[C@@H]3O[C@H]1C[C@H](N)[C@H](O)[C@H](C)O1 [DOXORUBICIN]
leukocytes; rat, in vivo
  Max Fold Serum Leukocyte Depletion: 4.70 fold
[1]
  Max Spleen Score (Signature Projection Score): 75**
[2]
  Max Bone Marrow Score (Signature Projection Score): 41*

## CS(=O)(=O)OCCCCOS(C)(=O)=O [BUSULFAN]
leukocytes; rat, in vivo
  Max Fold Serum Leukocyte Depletion: 0 fold
[1]
  Max Spleen Score (Signature Projection Score): 32*
[2]
  Max Bone Marrow Score (Signature Projection Score): 19

## Nc1nc2nc[nH]c2c(=S)[nH]1 [THIOGUANINE]
leukocytes; rat, in vivo
  Fold Decrease in leukocytes: 3.63* fold
  Max Fold Serum Leukocyte Depletion: 3.63 fold
[1]
  Max Spleen Score (Signature Projection Score): 100**
[2]
  Max Bone Marrow Score (Signature Projection Score): 24*

## CCC1=C[C@@H]2CN(C1)Cc1c([nH]c3ccccc13)[C@@](C(=O)OC)(c1cc3c(cc1OC)N(C)[C@H]1[C@@](O)(C(=O)OC)[C@H](OC(C)=O)[C@]4(CC)C=CCN5CC[C@]31[C@@H]54)C2 [VINORELBINE]
leukocytes; rat, in vivo
  Max Fold Serum Leukocyte Depletion: 1.93 fold
[2]
  Max Bone Marrow Score (Signature Projection Score): 44*

## CC/C(=C(/CC)c1ccc(O)cc1)c1ccc(O)cc1 [DIETHYLSTILBESTROL]
[1]
  Max Spleen Score (Signature Projection Score): 30*
[2]
  Max Bone Marrow Score (Signature Projection Score): 2

## CC(C)(c1ccc(O)cc1)c1ccc(O)cc1 [BISPHENOL A]
leukocytes; rat, in vivo
  Max Fold Serum Leukocyte Depletion: 0 fold
[1]
  Max Spleen Score (Signature Projection Score): 3
[2]
  Max Bone Marrow Score (Signature Projection Score): 0

## CCN(CC)N=O [N-NITROSODIETHYLAMINE]
[1]
  Max Spleen Score (Signature Projection Score): 0
[2]
  Max Bone Marrow Score (Signature Projection Score): 7

## Nc1ccn([C@@H]2O[C@H](CO)[C@@H](O)[C@@H]2O)c(=O)n1 [CYTARABINE]
leukocytes; rat, in vivo
  Max Fold Serum Leukocyte Depletion: 2.85 fold
[1]
  Max Spleen Score (Signature Projection Score): 15
[2]
  Max Bone Marrow Score (Signature Projection Score): 2

## Cn1cnc([N+](=O)[O-])c1Sc1ncnc2nc[nH]c12 [AZATHIOPRINE]
leukocytes; rat, in vivo
  Max Fold Serum Leukocyte Depletion: 0 fold
[1]
  Max Spleen Score (Signature Projection Score): 19
[2]
  Max Bone Marrow Score (Signature Projection Score): 11

## O=C1[O][Pt]2([NH][C@@H]3CCCC[C@H]3[NH]2)[O]C1=O [OXALIPLATIN]
leukocytes; maximum over treatments
  Max Fold Serum Leukocyte Depletion: 2.18 fold
[2]
  Max Bone Marrow Score (Signature Projection Score): 14

## C[C@H]1O[C@@H](n2cc(F)c(=O)[nH]c2=O)[C@H](O)[C@@H]1O [DOXIFLURIDINE]
leukocytes; rat, in vivo
  Max Fold Serum Leukocyte Depletion: 0 fold
[2]
  Max Bone Marrow Score (Signature Projection Score): 56*

## CC[C@]1(O)C[C@@H]2CN(CCc3c([nH]c4ccccc34)[C@@](C(=O)OC)(c3cc4c(cc3OC)N(C)[C@H]3[C@@](O)(C(=O)OC)[C@H](OC(C)=O)[C@]5(CC)C=CCN6CC[C@]43[C@@H]65)C2)C1 [VINBLASTINE]
[2]
  Max Bone Marrow Score (Signature Projection Score): 11

## O=NN(CCCl)C(=O)NCCCl [CARMUSTINE]
leukocytes; maximum over treatments
  Max Fold Serum Leukocyte Depletion: 4.49 fold
leukocytes; [3]
  Fold Decrease in leukocytes: 4.49* fold
[1]
  Max Spleen Score (Signature Projection Score): 31*
[2]
  Max Bone Marrow Score (Signature Projection Score): 39*

## CCO [ETHANOL]
leukocytes; rat, in vivo
  Max Fold Serum Leukocyte Depletion: 0 fold
[2]
  Max Bone Marrow Score (Signature Projection Score): 2

## COc1cccc2c1C(=O)c1c(O)c3c(c(O)c1C2=O)C[C@@](O)(C(C)=O)C[C@@H]3O[C@H]1C[C@H](N)[C@H](O)[C@H](C)O1 [DAUNORUBICIN]
leukocytes; maximum over treatments
  Max Fold Serum Leukocyte Depletion: 2.77 fold
[2]
  Max Bone Marrow Score (Signature Projection Score): 54*
